What was measured:
CXCR4 receptor = target: T1, CXCR4 receptor (Homo sapiens, UniProt P61073); assay: Cytofluorimetric determination of Ca2+ release in CCFR-CEM cells after stimulation with SDF-1α; format: cell-based; conditions: compound 10 uM, read-out: reduction (inhibition) of Calcium release induced by SDF-1α
T1 construct: a leukaemia T CD4+ cell line with a high expression of the CXCR4 receptor; endogenous in cells; host or cells: CCRF-CEM (printed also CCFR-CEM) leukaemia T CD4+ cells
Excerpt: For all the subsequent in vitro examples, two cell lines were used: CCFR-CEM and PES 43; the first is a leukaemia T CD4+ cell line with a high expression of the CXCR4 receptor, grown in a RPMI 1640 culture medium enriched with 10% of Fetal Bovine Serum (FBS) inactivated with heat and 1% of L-Glutamine; the second is a cell line deriving from melanoma lung metastasis called PES43 with a high expression of the CXCR4 receptor, grown in Iscove's Modified Dulbecco's Medium (IMDM) supplemented with 10% of Fetal Bovine Serum (FBS) inactivated with heat and 1% of Penicillin-Streptomycin.
The determination of the release of intracellular Calcium was effected in CCFR-CEM cells. The cells (500,000 cells) were washed with PBS, resuspended in 1 ml of Loading Buffer (PBS 1×, 1 mM CaCl2, 1 mM MgCl2, 1% FBS inactivated with heat) at 37° C., and incubated with 4 ul of the calcium tracer FLUO3-AM (1 mg/ml; Sigma) and 4 ul of Pluronic Acid F-127 (1 mg/ml in 2% of DMSO; Invitrogen) in the dark for 30′ at 37° C. under stirring. In order to remove the excess FLUO3-AM, 3 ml of Loading Buffer are added, this is followed by a centrifugation for 5′ at 1,000-1,200 rpm. The pellet thus obtained is resuspended in 1 ml of Loading Buffer. […]

[1] = test system: phosphorylation of ERK 1,2; assay: p-ERK induction by Immunoblotting in PES43 cells; format: cell-based, human; conditions: AMD3100 1 uM, SDF-1α 100 ng/ml
Method: CXCL12 activates the phosphorylation of ERK and this phosphorylation is inhibited by both AMD3100 (1 uM), and by the peptides css:[C-WHR-C] (10 uM), css:[C-FFR-C] (10 uM), css:[C-FFR-C]-Nam (10 uM), css:[C-WYR-C]-AR (10 uM), RA-css:[C-RFF-C] (10 uM), RA-css:[C-RHW-C] (10 uM), abb:[β-Ala-WHR-β-Ala] (10 uM).
The activation of CXCR4 induces the transduction path of MAPK through the phosphorylation of ERK 1,2. For this reason, the modulation of the induction of P-ERK was evaluated in relation to treatment with SDF-1α (100 ng/ml), peptides (10 uM) and AMD3100 (1 uM).
The cells were deprived of serum for 24 hours and then stimulated with SDF-1α.
The human melanoma cells, PES43, grown on 100 mm plates, were treated with SDF-1α, for 2-5-7-10 minutes. The cells were then mechanically detached, lysed in a specific buffer to which protease inhibitors and phosphatase inhibitors were added (120 mM NaCl, 40 mM Hepes, 5 mM MgCl2, 1 mM EGTA, 0.5 mM EDTA, 0.6% Triton, 10% glycerol, […], 1 mM Na3VO4, 1 mM NaF). The cell lysates thus obtained (50 μg of total proteins) were first denatured with Laemmli 4× and then separated with SDS-PAGE on gel at 10% in the presence of a running buffer (Tris Base, Glycine, SDS); the proteins were subsequently transferred onto a nitrocellulose membrane in incubated with primary antibodies specific for the following proteins: phospho-ERK 1/2, total ERK. […]

[2] = cited from earlier work

T1 sequence (P61073 whole entry): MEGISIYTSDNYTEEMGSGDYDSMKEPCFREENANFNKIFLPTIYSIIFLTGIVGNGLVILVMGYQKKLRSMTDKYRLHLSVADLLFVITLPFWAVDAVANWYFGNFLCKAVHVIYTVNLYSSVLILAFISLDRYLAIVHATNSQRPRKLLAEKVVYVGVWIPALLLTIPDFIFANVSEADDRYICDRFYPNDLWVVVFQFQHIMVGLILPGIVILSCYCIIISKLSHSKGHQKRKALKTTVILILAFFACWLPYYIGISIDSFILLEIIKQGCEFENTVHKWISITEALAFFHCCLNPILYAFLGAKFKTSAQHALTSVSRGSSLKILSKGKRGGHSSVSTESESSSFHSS

- inhibition at 10 µM (CXCR4 receptor): 70%
SMILES: c1cc(CN2CCCNCCNCCCNCC2)ccc1CN1CCCNCCNCCCNCC1 [AMD3100, 1,19-[1,4-phenylenebis(methylene)]-bis-1,4,8,11-azatetradecane]
- inhibition of SDF-1α-activated phosphorylation of ERK [1]: inhibited
- time of peak of increase in white blood cell series after administration ([2]; healthy volunteers, Phase 1): 6 h
- bioavailability ([2]; previous studies [4]): poor
- toxicity ([2]; previous studies [4]): hepatic, cardiac and cerebellar toxicity

From patent US9102710B2, “Cyclic peptides binding CXCR4 receptor and relative medical and diagnostic uses” (IRCCS-ISTITUTO NAZIONALE PER LO STUDIO E LA CURA DEI TUMORI …, priority 2010, dated 2015)
